This is an account of results in patent publication US20040248739A1, “Pyridylpropynyloxyphenyl derivatives for use as herbicides” (priority 2001, published 2004).

What all share (assay type): in vivo
One experiment concerns Echinochloa (Ds). The experiment can be described thus: Pre-emergence herbicidal action (Example B1). The note with it: 1000 g of active ingredient/ha, after 4 weeks, scale of nine ratings. Here is the method: (§1) Monocotyledonous and dicotyledonous test plants are sown in standard soil in pots. Immediately after sowing, the test compounds, in the form of an aqueous suspension (prepared from a wettable powder (Example F3, b) according to WO 97/34485) or in the form of an emulsion (prepared from an emulsifiable concentrate (Example F1, c) according to WO 97/34485), are applied by spraying in an optimum concentration (500 litres of water/ha). The test plants are then grown in a greenhouse under optimum conditions. After a test duration of 4 weeks, the test is evaluated in accordance with a scale of nine ratings (1=total damage, 9=no action). Ratings of from 1 to 4 (especially from 1 to 3) indicate good to very good herbicidal action. Test plants: Panicum, Echinochloa (Ds), Amaranthus, Chenopodium, Stellaria, Veronica.

In the next experiment the test system is Panicum. The experiment can be described thus: Pre-emergence herbicidal action (Example B1). The conditions noted are these: 1000 g of active ingredient/ha, after 4 weeks, scale of nine ratings. Here is the method: as §1
The subject of experiment [1] is Amaranthus. Briefly: Pre-emergence herbicidal action (Example B1). The arrangement: key: 1=total damage; 9=no action; Ratings of from 1 to 4 (especially from 1 to 3) indicate good to very good herbicidal action. The conditions noted are these: 1000 g of active ingredient/ha, after 4 weeks, scale of nine ratings. Here is the method: as §1
Experiment [2] relates to Chenopodium. Briefly: Pre-emergence herbicidal action (Example B1). Also on record: key: 1=total damage; 9=no action; Ratings of from 1 to 4 (especially from 1 to 3) indicate good to very good herbicidal action. The note with it: 1000 g of active ingredient/ha, after 4 weeks, scale of nine ratings. Here is the method:
as §1

The subject of experiment [3] is Stellaria. Briefly: Pre-emergence herbicidal action (Example B1). The arrangement: key: 1=total damage; 9=no action; Ratings of from 1 to 4 (especially from 1 to 3) indicate good to very good herbicidal action. The note with it: 1000 g of active ingredient/ha, after 4 weeks, scale of nine ratings. Here is the method: as §1
Experiment [4] has as its system Veronica. Briefly: Pre-emergence herbicidal action (Example B1). The arrangement: key: 1=total damage; 9=no action; Ratings of from 1 to 4 (especially from 1 to 3) indicate good to very good herbicidal action. The conditions noted are these: 1000 g of active ingredient/ha, after 4 weeks, scale of nine ratings. Here is the method: as §1
The subject of another experiment is Euphorbia. The experiment can be described thus: Post-emergence herbicidal action (Example B2). The conditions noted are these: post-emergence (2- to 3-leaf stage), 1000 g of active ingredient/ha, after 2 to 3 weeks, scale of nine ratings. Here is the method: as §1, with “pots. When the test plants are at the 2- to 3-leaf stage,” for “pots. Immediately after sowing,”, “grown on” for “grown”, “of 2 to 3” for “of 4”, “Panicum, Euphorbia,” for “Panicum, Echinochloa (Ds),”

Experiment [5] deals with Stellaria. Briefly: Post-emergence herbicidal action (Example B2). The conditions noted are these: post-emergence (2- to 3-leaf stage), 1000 g of active ingredient/ha, after 2 to 3 weeks, scale of nine ratings. Here is the method:
as §1, with “pots. When the test plants are at the 2- to 3-leaf stage,” for “pots. Immediately after sowing,”, “grown on” for “grown”, “of 2 to 3” for “of 4”, “Panicum, Euphorbia,” for “Panicum, Echinochloa (Ds),”

The test system of experiment [6] is Veronica. Briefly: Post-emergence herbicidal action (Example B2). The conditions noted are these: post-emergence (2- to 3-leaf stage), 1000 g of active ingredient/ha, after 2 to 3 weeks, scale of nine ratings. Here is the method: as §1, with “pots. When the test plants are at the 2- to 3-leaf stage,” for “pots. Immediately after sowing,”, “grown on” for “grown”, “of 2 to 3” for “of 4”, “Panicum, Euphorbia,” for “Panicum, Echinochloa (Ds),”

Experiment [7] concerns Amaranthus. The experiment can be described thus: Post-emergence herbicidal action (Example B2). The note with it: post-emergence (2- to 3-leaf stage), 1000 g of active ingredient/ha, after 2 to 3 weeks, scale of nine ratings. The arrangement: key: 1=total damage; 9=no action; Ratings of from 1 to 4 (especially from 1 to 3) indicate good to very good herbicidal action. Here is the method:
as §1, with “pots. When the test plants are at the 2- to 3-leaf stage,” for “pots. Immediately after sowing,”, “grown on” for “grown”, “of 2 to 3” for “of 4”, “Panicum, Euphorbia,” for “Panicum, Echinochloa (Ds),”

The test system of experiment [8] is Chenopodium. Briefly: Post-emergence herbicidal action (Example B2). The conditions noted are these: post-emergence (2- to 3-leaf stage), 1000 g of active ingredient/ha, after 2 to 3 weeks, scale of nine ratings. The arrangement: key: 1=total damage; 9=no action; Ratings of from 1 to 4 (especially from 1 to 3) indicate good to very good herbicidal action. Here is the method: as §1, with “pots. When the test plants are at the 2- to 3-leaf stage,” for “pots. Immediately after sowing,”, “grown on” for “grown”, “of 2 to 3” for “of 4”, “Panicum, Euphorbia,” for “Panicum, Echinochloa (Ds),”

With `COc1cc(F)ccc1OCC#Cc1ccc(Cl)nc1` [1.004, 2-Chloro-5-[3-(4-fluoro-2-methoxy-phenoxy)-prop-1-ynyl]-pyridine], the “Echinochloa (Ds), herbicidal rating” value in the experiment with Echinochloa (Ds) is listed as 2. Also, the “Panicum, herbicidal rating” value with Panicum came to 2. The “Amaranthus, herbicidal rating” value in the experiment on Amaranthus [1] and with Amaranthus [7] was 1 each time. Also, the “Chenopodium, herbicidal rating” value with Chenopodium [2] and with Chenopodium [8] was 1 each time. The “Stellaria, herbicidal rating” value with Stellaria [3] amounted to 1; in the experiment with Stellaria [5], 2. Besides, the “Veronica, herbicidal rating” value was 1 with Veronica [4] and 2 with Veronica [6]. For the same compound, the “Euphorbia, herbicidal rating” value in the experiment with Euphorbia was found to be 2.
